Tested on: HCV replicon (NS5A1b) in Huh-7 cells
Experiment: microbe, parasite or virus in culture
Type: cell-based
Conditions: Hepatitis C virus, 72 h; NS5A1b; HCV replicon-containing Huh-7 cells, three days; read-out: EC50 (μM) NS5A1b
Procedure: Compounds claimed herein are tested for the ability to inhibit viral replication of the Hepatitis C replicon in cultured cells in which the HCV replicon construct has been incorporated. The HCV replicon system was described by Bartenschlager, et. al (Science, 285, pp. 110-113 (1999)). The replicon system is predictive of in vivo anti-HCV activity; compounds that are active in humans uniformly evidence activity in the replicon assay.
In this assay HCV replicon containing cells are treated with different concentrations of the test compound to ascertain the ability of the test compound to suppress replication of the HCV replicon. As a positive control, HCV replicon-containing cells are treated with different concentrations of interferon alpha, a known inhibitor of HCV replication. The replicon assay system includes Neomycin Phosphotransferase (NPT) as a component of the replicon itself in order to detect the transcription of replicon gene products in the host cell. Cells in which the HCV replicon is actively replicating have high levels of NPT; the level of NPT is proportional to HCV replication. […] The NPT level of each sample is measured using a captured ELISA.
A protocol for testing compounds for the ability to inhibit viral replication of the Hepatitis C replicon cultured cells in which the replicon construct has been incorporated, follows.
The HCV replicon contains, 5′-3′, the HCV-IRES, the neomycin phosphotransferase (neo) gene, the IRES of encephalomyocarditis virus, which directs translation of HCV sequences NS3 to NS5B, and the 3′-NTR. The sequence of the HCV replicon has been deposited in GenBank (Accession no. AJ242652).
The replicon is transfected into Huh-7 cells using standard methods such as electroporation.
The equipment and materials include, but are not limited to, Huh-7 HCV replicon-containing cells, maintenance media (DMEM (Dulbecco's modified Eagle media) supplemented with 10% FBS, L-glutamine, non-essential amino acids, penicillin (100 units/ml), streptomycin (100 micrograms/ml), and 500 micrograms/ml of Geneticin (G418), screening media (DMEM supplemented with 10% FBS, L-glutamine, non-essential amino acids, penicillin (100 units/ml) and streptomycin (100 micrograms/ml), 96 well tissue culture plates (flat bottom), 96 well plates (U bottom for drug dilution), Interferon alpha for positive control, fixation reagent (such as methanol: acetone), primary antibody (rabbit anti-NPTII), secondary antibody: Eu-N1 1, and enhancement solution.
HCV replicon-containing cells support high levels of viral RNA replicon replication when their density is suitable. Over-confluency causes decreased viral RNA replication. Therefore, cells must be kept growing in log phase in the presence of 500 micrograms/ml of G418. Generally, cells should be passed twice a week at 1:4-6 dilution. Cell maintenance is conducted as follows:
HCV replicon-containing cells are examined under a microscope to ensure that cells growing well. Cells are rinsed once with PBS and 2 ml trypsin is added. The cell/trypsin mixture is incubated at 37° C. in a CO2 incubator for 3-5 minutes. After incubation 10 ml of complete media is added to stop the trypsinization reaction. Cells are blown gently, put into a 15 ml tube, and spun at 1200 rpm for 4 minutes. The trypsin/medium solution is removed. Medium (5 ml) is added and the cells are mixed carefully. The cells are counted.
The cells are then seeded onto 96-well plates at a density of 6000-7500 cells/100 microliters/well (6-7.5×10^5 cells/10 ml/plate). The plates are then incubated at 37° C. in a 5% CO2 incubator.
Cells are examined under a microscope approximated 24 hours after seeding and prior to adding drugs. If counting and dilution were performed correctly, cells are 60-70% confluent and nearly all cells should attach and spread evenly in the well.
HCV replicon-containing cells are rinsed with once PBS once; 2 mls of trypsin are then added. Cells are incubated at 37° C. in a 5% CO2 incubator for 3-5 minutes. […]

Point of comparison: `COC(=O)N[C@H](C(=O)N1C(c2nc3ccc(-c4cc5ccc4CCc4ccc(c(-c6ccc7nc(C8C[C@@H]9CCCC[C@@H]9N8C(=O)[C@@H](NC(=O)OC)C(C)C)n(COC(=O)[C@@H](N)C(C)C)c7c6)c4)CC5)cc3n2COC(=O)[C@@H](N)C(C)C)C[C@@H]2CCCC[C@@H]21)C(C)C` (stereo partly drawn) [Compound 130], EC50 0.009 nM. Against it:
- C=CCOC(=O)N1CCC[C@H]1C(=O)N1CCC[C@H]1c1nc(-c2ccc(-c3cc4ccc3CCc3ccc(c(-c5ccc(-c6c[nH]c([C@@H]7CCCN7C(=O)[C@@H]7CCCN7C(=O)OCC=C)n6)cc5)c3)CC4)cc2)c[nH]1 [Compound 58] — higher, > 1000 nM
- COC(=O)N[C@H](C(=O)N1CCC[C@H]1c1nc(-c2ccc(-c3cc4c(-c5c[nH]c([C@@H]6CCCN6C(=O)[C@@H](NC(=O)OC)C(C)C)n5)cc3CCc3ccc(cc3)CC4)cc2)c[nH]1)C(C)C [Compound 46] — not separable, < 3.17 nM
- C=CCOC(=O)N[C@H](C(=O)N1CCC[C@H]1c1nc(-c2ccc(-c3cc4ccc3CCc3ccc(c(-c5ccc(-c6c[nH]c([C@@H]7CCCN7C(=O)[C@@H](NC(=O)OCC=C)c7ccccc7)n6)cc5)c3)CC4)cc2)c[nH]1)c1ccccc1 [Compound 59] — 61000-fold higher, 548 nM
- COC(=O)N[C@H](C(=O)N1[C@H](c2nc3cc(-c4cc5ccc4CCc4ccc(c(-c6ccc7[nH]c([C@@H]8C[C@@H]9CCCC[C@@H]9N8C(=O)[C@@H](NC(=O)OC)[C@@H](C)OC)nc7c6)c4)CC5)ccc3[nH]2)C[C@@H]2CCCC[C@@H]21)[C@@H](C)OC [Compound 111] — 1.8-fold lower, 0.005 nM
- COC(=O)N[C@H](C(=O)N1CCC[C@H]1c1nc2cc(-c3cc4ccc3CCc3ccc(c(-c5ccc6[nH]c([C@@H]7CCCN7C(=O)[C@@H](NC(=O)OC)C(C)C)nc6c5)c3)CC4)ccc2[nH]1)C(C)C [Compound 45] — not separable, < 3.2 nM
- COC(=O)N1CCC[C@H]1C(=O)N1CCC[C@H]1c1nc(-c2ccc(-c3cc4ccc3CCc3ccc(c(-c5ccc(-c6c[nH]c([C@@H]7CCCN7C(=O)[C@@H]7CCCN7C(=O)OC)n6)cc5)c3)CC4)cc2)c[nH]1 [Compound 54] — higher, > 1000 nM
- COC(=O)N[C@@H](CCSC)C(=O)N1CCC[C@H]1c1nc2cc(-c3cc4ccc3CCc3ccc(c(-c5ccc6[nH]c([C@@H]7CCCN7C(=O)[C@H](CCSC)NC(=O)OC)nc6c5)c3)CC4)ccc2[nH]1 [Compound 50] — 930-fold higher, 8.41 nM
- COC(=O)N[C@H](C(=O)N1CCC[C@H]1c1nc(-c2ccc(-c3cc4ccc3CCc3ccc(c(-c5ccc(-c6c[nH]c([C@@H]7CCCN7C(=O)[C@@H](NC(=O)OC)c7ccccc7)n6)cc5)c3)CC4)cc2)c[nH]1)c1ccccc1 [Compound 52] — 1100-fold higher, 9.83 nM
- C=CCOC(=O)N[C@H](C(=O)N1CCC[C@H]1c1nc(-c2ccc(-c3cc4ccc3CCc3ccc(c(-c5ccc(-c6c[nH]c([C@@H]7CCCN7C(=O)[C@@H](NC(=O)OCC=C)C(C)C)n6)cc5)c3)CC4)cc2)c[nH]1)C(C)C [Compound 55] — higher, > 1000 nM
- COC(=O)N[C@H](C(=O)N1[C@H](c2nc3cc(-c4cc5ccc4CCc4ccc(c(-c6ccc7[nH]c([C@@H]8C[C@@H]9CCCC[C@@H]9N8C(=O)[C@@H](NC(=O)OC)C(C)C)nc7c6)c4)CC5)ccc3[nH]2)C[C@@H]2CCCC[C@@H]21)C(C)C [Compound 43] — 320-fold higher, 2.85 nM
- COC(=O)N[C@H](C(=O)N1[C@H](c2nc(-c3ccc(-c4cc5ccc4CCc4ccc(c(-c6ccc(-c7c[nH]c([C@@H]8C[C@@H]9CCCC[C@@H]9N8C(=O)[C@@H](NC(=O)OC)C(C)C)n7)cc6)c4)CC5)cc3)c[nH]2)C[C@@H]2CCCC[C@@H]21)C(C)C [Compound 60] — 14000-fold higher, 128 nM
- COC(=O)N[C@H](C(=O)N1CCC[C@H]1c1nc(-c2ccc(-c3cc4ccc3CCc3ccc(c(-c5ccc(-c6c[nH]c([C@@H]7CCCN7C(=O)[C@@H](NC(=O)OC)C(C)C)n6)cc5)c3)CC4)cc2)c[nH]1)C(C)C [Compound 40] — within 1.5-fold, 0.012 nM
- COC(=O)N[C@H](C(=O)N1CCC[C@H]1c1nc(-c2ccc(-c3cc4ccc3CCc3ccc(c(-c5c[nH]c([C@@H]6CCCN6C(=O)[C@@H](NC(=O)OC)C(C)C)n5)c3)CC4)cc2)c[nH]1)C(C)C [Compound 47] — 560-fold higher, 5.02 nM
- COC(=O)N[C@@H](CCC#N)C(=O)N1[C@H](c2nc3cc(-c4cc5ccc4CCc4ccc(c(-c6ccc7[nH]c([C@@H]8C[C@@H]9CCCC[C@@H]9N8C(=O)[C@H](CCC#N)NC(=O)OC)nc7c6)c4)CC5)ccc3[nH]2)C[C@@H]2CCCC[C@@H]21 [Compound 110] — within 1.5-fold, 0.006 nM
- COC(=O)N[C@@H](CCSC)C(=O)N1[C@H](c2nc(-c3ccc(-c4cc5ccc4CCc4ccc(c(-c6ccc(-c7c[nH]c([C@@H]8C[C@@H]9CCCC[C@@H]9N8C(=O)[C@H](CCSC)NC(=O)OC)n7)cc6)c4)CC5)cc3)c[nH]2)C[C@@H]2CCCC[C@@H]21 [Compound 61] — 8400-fold higher, 75.2 nM
- COC(=O)N[C@H](C(=O)N1[C@H](c2nc3cc(-c4cc5ccc4CCc4ccc(c(-c6ccc7[nH]c([C@@H]8C[C@@H]9CCCC[C@@H]9N8C(=O)[C@@H](NC(=O)OC)[C@@H](C)O)nc7c6)c4)CC5)ccc3[nH]2)C[C@@H]2CCCC[C@@H]21)[C@@H](C)O [Compound 128] — within 1.5-fold, 0.008 nM
- COC(=O)N[C@H](C(=O)N1C[C@H](C)C[C@H]1c1nc2cc(-c3cc4ccc3CCc3ccc(c(-c5ccc6[nH]c([C@@H]7C[C@@H](C)CN7C(=O)[C@@H](NC(=O)OC)C(C)C)nc6c5)c3)CC4)ccc2[nH]1)C(C)C [Compound 66] — 1.8-fold lower, 0.005 nM
- COC(=O)N[C@@H](CCSC)C(=O)N1CCC[C@H]1c1nc(-c2ccc(-c3cc4ccc3CCc3ccc(c(-c5ccc(-c6c[nH]c([C@@H]7CCCN7C(=O)[C@H](CCSC)NC(=O)OC)n6)cc5)c3)CC4)cc2)c[nH]1 [Compound 53] — 23000-fold higher, 211 nM
- COC(=O)N1CCC[C@H]1C(=O)N1CCC[C@H]1c1nc2cc(-c3cc4ccc3CCc3ccc(c(-c5ccc6[nH]c([C@@H]7CCCN7C(=O)[C@@H]7CCCN7C(=O)OC)nc6c5)c3)CC4)ccc2[nH]1 [Compound 51] — higher, > 1000 nM
- C=CCOC(=O)N[C@@H](CCSC)C(=O)N1CCC[C@H]1c1nc(-c2ccc(-c3cc4ccc3CCc3ccc(c(-c5ccc(-c6c[nH]c([C@@H]7CCCN7C(=O)[C@H](CCSC)NC(=O)OCC=C)n6)cc5)c3)CC4)cc2)c[nH]1 [Compound 57] — higher, > 1000 nM
- COC(=O)N[C@H](C(=O)N1[C@H](c2nc(-c3ccc(-c4cc5ccc4CCc4ccc(c(-c6ccc(-c7c[nH]c([C@@H]8C[C@@H]9CCCC[C@@H]9N8C(=O)[C@@H](NC(=O)OC)c8ccccc8)n7)cc6)c4)CC5)cc3)c[nH]2)C[C@@H]2CCCC[C@@H]21)c1ccccc1 [Compound 62] — 8300-fold higher, 75 nM
- COC(=O)N1CCC[C@H]1C(=O)N1[C@H](c2nc(-c3ccc(-c4cc5ccc4CCc4ccc(c(-c6ccc(-c7c[nH]c([C@@H]8C[C@@H]9CCCC[C@@H]9N8C(=O)[C@@H]8CCCN8C(=O)OC)n7)cc6)c4)CC5)cc3)c[nH]2)C[C@@H]2CCCC[C@@H]21 [Compound 63] — 100000-fold higher, 899 nM
- COC(=O)N[C@H](C(=O)N1CCC[C@H]1c1ncc(-c2ccc(C34CC(c5ccc(-c6cnc([C@@H]7CCCN7C(=O)[C@@H](NC(=O)OC)C(C)C)[nH]6)cc5)(C3)C4)cc2)[nH]1)C(C)C [Compound 44] — 450-fold higher, 4.08 nM

Same assay, conditions: Hepatitis C virus, Huh-7; Example 9 replicon assay; read-out: EC50 values in HCV replicon assay

`CC(C)(C)OC(=O)N1[C@H](c2nc3ccc(B4OC(C)(C)C(C)(C)O4)cc3[nH]2)C[C@@H]2CCCC[C@@H]21` [Compound 16, (2S,3aS,7aS)-tert-butyl 2-(6-(4,4,5,5-tetramethyl-1,3,2-dioxaborolan-2-yl)-1H-benzo[d]imidazol-2-yl)octahydro-1H-indole-1-carboxylate] and `CC(C)(C)OC(=O)Nc1ccc(B2OC(C)(C)C(C)(C)O2)cc1NC(=O)OC(C)(C)C` [Compound 25, di-tert-butyl (4-(4,4,5,5-tetramethyl-1,3,2-dioxaborolan-2-yl)-1,2-phenylene)dicarbamate] cannot be ordered by EC50: at most 10000 nM for the first, at most 10000 nM for the second.

With `COC(=O)N[C@H](C(=O)N1CCC[C@H]1c1nc(-c2ccc(-c3cc4ccc3CCc3ccc(c(-c5ccc(-c6c[nH]c([C@@H]7CCCN7C(=O)[C@@H](NC(=O)OC)C(C)C)n6)cc5)c3)CC4)cc2)c[nH]1)C(C)C` [Compound 40] the EC50 was at most 10000 nM.

Source: patent US10092547B2, “Substituted aliphanes, cyclophanes, heteraphanes, heterophanes, hetero- heteraphanes and metallocenes useful for treating HCV infections” (priority 2011, dated 2018)
